Reference: patent US20210269434A1, “TRICYCLIC COMPOUNDS AS INHIBITORS OF KRAS” (Incyte Corporation, priority 2020, published 2021)

Experiments:
[1] = test system: MIA PaCa-2 (KRAS G12C) cells; experiment: Cellular pERK HTRF assay (KRAS_G12C pERK); type: cell-based, human; details: Homo sapiens, MIA PaCa-2, 4 hours incubation, read-out: G12C_pERK
Procedure, shortened: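 Phospho-ERK1/2 HTRF readout (665 and 620 nm) in lysed MIA PaCa-2 cells, antibodies incubated overnight at room temperature. Cells seeded the day before and treated with G12C compounds for 4 h at 37 °C; IC50 fitted to percent inhibition against log inhibitor concentration.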

KRAS G12C = KRAS G12C (Homo sapiens, UniProt P01116, G12C); experiment: GDP-GTP exchange assay (KRAS_G12C exchange); type: biochemical; details: bodipy-GDP loaded KRAS G12C 2.5 nM, SOS1 150 nM, GppNHp; 2 hours pre-incubation, 2 hours reaction; read-out: G12C_exchange
Chain of KRAS G12C (P01116 1-188 isoform P01116-2 G12C): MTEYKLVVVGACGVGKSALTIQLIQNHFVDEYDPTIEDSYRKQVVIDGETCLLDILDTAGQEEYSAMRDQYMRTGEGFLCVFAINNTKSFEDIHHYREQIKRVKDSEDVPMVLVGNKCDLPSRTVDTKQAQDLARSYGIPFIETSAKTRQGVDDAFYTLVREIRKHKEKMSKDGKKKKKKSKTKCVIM
Procedure, shortened: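 Fluorescence exchange of bodipy-GDP for GppNHp, SOS1-driven, read at 485/520 nm; IC50 from four-parameter variable-slope fit. Both mutants used 2.5 nM final labelled protein and a 2 h compound pre-incubation. G12C reaction had 500 uM GppNHp and 150 nM SOS1 for 2 h; G12D ran 4 h.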

| Structure (SMILES) | IC50 [1] [nM] | IC50 (KRAS G12C) [nM] |
| --- | --- | --- |
| C=CC(=O)N1CC[C@H](n2nnc3c(OC[C@@H]4CCCN4C)nc4c(F)c(-c5cccc(Cl)c5C)c(C)cc4c32)C[C@H]1CC#N [Example 98, 2-((2S,4S)-1-acryloyl-4-(7-(3-chloro-2-methylphenyl)-6-fluoro-8-methyl-4-(((S)-1-methylpyrrolidin-2-yl)methoxy)-1H-[1,2,3]triazolo[4,5-c]quinolin-1-yl)piperidin-2-yl)acetonitrile] | ≤ 100 | ≤ 100 |
| CC#CC(=O)N1CC[C@H](n2nnc3c(OC[C@@H]4CCCN4C)nc4c(F)c(-c5cccc(Cl)c5C)c(C)cc4c32)C[C@H]1CC#N [Example 99, 2-((2S,4S)-1-(but-2-ynoyl)-4-(7-(3-chloro-2-methylphenyl)-6-fluoro-8-methyl-4-(((S)-1-methylpyrrolidin-2-yl)methoxy)-1H-[1,2,3]triazolo[4,5-c]quinolin-1-yl)piperidin-2-yl)acetonitrile] | ≤ 100 | ≤ 100 |
| COC/C=C/C(=O)N1CC[C@H](n2nnc3c(OC[C@@H]4CCCN4C)nc4c(F)c(-c5cccc(Cl)c5C)c(C)cc4c32)C[C@H]1CC#N [Example 100, 2-((2S,4S)-4-(7-(3-chloro-2-methylphenyl)-6-fluoro-8-methyl-4-(((S)-1-methyl-pyrrolidin-2-yl)methoxy)-1H-[1,2,3]triazolo[4,5-c]quinolin-1-yl)-1-((E)-4-methoxybut-2-enoyl)piperidin-2-yl)acetonitrile] | ≤ 100 | ≤ 100 |
| C=CC(=O)N1CC[C@H](n2nnc3c(N4CC(C)(N(C)C)C4)nc4c(F)c(-c5cccc(Cl)c5C)c(C)cc4c32)C[C@H]1CC#N [Example 101, 2-((2S,4S)-1-acryloyl-4-(7-(3-chloro-2-methylphenyl)-4-(3-(dimethylamino)-3-methylazetidin-1-yl)-6-fluoro-8-methyl-1H-[1,2,3]triazolo[4,5-c]quinolin-1-yl)piperidin-2-yl)acetonitrile] | ≤ 100 | ≤ 100 |
| Cc1cc2c(nc(N3CC(C)(N(C)C)C3)c3nnn([C@H]4CCN(C(=O)/C=C/C(F)F)[C@H](CC#N)C4)c32)c(F)c1-c1cccc(Cl)c1C [Example 102, 2-((2S,4S)-4-(7-(3-chloro-2-methylphenyl)-4-(3-(dimethylamino)-3-methylazetidin-1-yl)-6-fluoro-8-methyl-1H-[1,2,3]triazolo-[4,5-c]quinolin-1-yl)-1-((E)-4,4-difluorobut-2-enoyl)-piperidin-2-yl)acetonitrile] | ≤ 100 | ≤ 100 |
| CC#CC(=O)N1CC[C@H](n2nnc3c(N4CC(C)(N(C)C)C4)nc4c(F)c(-c5cccc(Cl)c5C)c(C)cc4c32)C[C@H]1CC#N [Example 103, 2-((2S,4S)-1-(but-2-ynoyl)-4-(7-(3-chloro-2-methyl-phenyl)-4-(3-(dimethyl-amino)-3-methylazetidin-1-yl)-6-fluoro-8-methyl-1H-[1,2,3]triazolo[4,5-c]quinolin-1-yl)piperidin-2-yl)acetonitrile] | ≤ 100 | ≤ 100 |
| Cc1cc2c(nc(N3CC(C)(N(C)C)C3)c3nnn([C@H]4CCN(C(=O)/C=C/CF)[C@H](CC#N)C4)c32)c(F)c1-c1cccc(Cl)c1C [Example 104, 2-((2S,4S)-4-(7-(3-chloro-2-methylphenyl)-4-(3-(dimethylamino)-3-methyl-azetidin-1-yl)-6-fluoro-8-methyl-1H-[1,2,3]triazolo[4,5-c]quinolin-1-yl)-1-((E)-4-fluorobut-2-enoyl)piperidin-2-yl)acetonitrile] | ≤ 100 | ≤ 100 |
| Cc1cc2c(nc(N3CC(C)(N(C)C)C3)c3nnn([C@H]4CCN(C(=O)/C=C/CN(C)C)[C@H](CC#N)C4)c32)c(F)c1-c1cccc(Cl)c1C [Example 105, 2-((2S,4S)-4-(7-(3-chloro-2-methylphenyl)-4-(3-(dimethylamino)-3-methylazetidin-1-yl)-6-fluoro-8-methyl-1H-[1,2,3]triazolo[4,5-c]quinolin-1-yl)-1-((E)-4-(dimethylamino)but-2-enoyl)piperidin-2-yl)acetonitrile] | ≤ 100 | ≤ 100 |
| C=CC(=O)N1CC[C@H](n2cnc3c(N4CC(N(C)C)C4)nc4c(F)c(-c5ccccc5C(F)(F)F)c(Cl)cc4c32)C[C@H]1CC#N [Example 106, 2-((2S,4S)-1-acryloyl-4-(8-chloro-4-(3-(dimethylamino)azetidin-1-yl)-6-fluoro-7-(2-(trifluoromethyl)phenyl)-1H-imidazo[4,5-c]quinolin-1-yl)piperidin-2-yl)acetonitrile] | ≤ 100 | ≤ 100 |
| C=CC(=O)N1CC[C@H](n2cnc3c(N4CC(N(C)C)C4)nc4c(F)c(-c5cccc(Cl)c5Cl)c(Cl)cc4c32)C[C@H]1CC#N [Example 107, 2-((2S,4S)-1-acryloyl-4-(8-chloro-7-(2,3-dichlorophenyl)-4-(3-(dimethylamino)azetidin-1-yl)-6-fluoro-1H-imidazo[4,5-c]quinolin-1-yl)piperidin-2-yl)acetonitrile] | ≤ 100 | ≤ 100 |
| C=CC(=O)N1CC[C@H](n2cnc3c(N4CC(N(C)C)C4)nc4c(F)c(-c5cnccc5C)c(Cl)cc4c32)C[C@H]1CC#N [Example 108, 2-((2S,4S)-1-acryloyl-4-(8-chloro-4-(3-(dimethylamino)azetidin-1-yl)-6-fluoro-7-(4-methylpyridin-3-yl)-1H-imidazo[4,5-c]quinolin-1-yl)piperidin-2-yl)acetonitrile] | ≤ 100 | ≤ 100 |
| C=CC(=O)N1CC[C@H](n2cnc3c(N4CC(N(C)C)C4)nc4c(F)c(-c5cccc(C)c5)c(Cl)cc4c32)C[C@H]1CC#N [Example 109, 2-((2S,4S)-1-acryloyl-4-(8-chloro-4-(3-(dimethylamino)-azetidin-1-yl)-6-fluoro-7-(m-tolyl)-1H-imidazo[4,5-c]quinolin-1-yl)piperidin-2-yl)acetonitrile] | ≤ 100 | ≤ 100 |
| C=CC(=O)N1CC[C@H](n2cnc3c(N4CC(N(C)C)C4)nc4c(F)c(-c5cncc(C)c5C)c(Cl)cc4c32)C[C@H]1CC#N [Example 110a, 2-((2S,4S)-1-acryloyl-4-(8-chloro-4-(3-(dimethylamino)-azetidin-1-yl)-7-(4,5-dimethylpyridin-3-yl)-6-fluoro-1H-imidazo[4,5-c]quinolin-1-yl)piperidin-2-yl)acetonitrile] | ≤ 100 | ≤ 100 |
| C=CC(=O)N1CC[C@H](n2nnc3c(N4CC(N(C)C)C4)nc4c(F)c(-c5cccc(C)c5C)c(Cl)cc4c32)C[C@H]1CC#N [Example 111, 2-((2S,4S)-1-acryloyl-4-(8-chloro-4-(3-(dimethylamino)azetidin-1-yl)-7-(2,3-dimethylphenyl)-6-fluoro-1H-[1,2,3]triazolo[4,5-c]quinolin-1-yl)piperidin-2-yl)acetonitrile] | ≤ 100 | ≤ 100 |
| C=CC(=O)N1CC[C@H](n2nnc3c(N4CC(N(C)C)C4)nc4c(F)c(-c5cccc(Cl)c5C)c(Cl)cc4c32)C[C@H]1CC#N [Example 112, 2-((2S,4S)-1-acryloyl-4-(8-chloro-7-(3-chloro-2-methylphenyl)-4-(3-(dimethylamino)azetidin-1-yl)-6-fluoro-1H-[1,2,3]triazolo[4,5-c]quinolin-1-yl)piperidin-2-yl)acetonitrile] | ≤ 100 | ≤ 100 |
| C=CC(=O)N1CC[C@H](n2nnc3c(N4CC(N(C)C)C4)nc4c(F)c(-c5cccc(Cl)c5Cl)c(Cl)cc4c32)C[C@H]1CC#N [Example 113, 2-((2S,4S)-1-acryloyl-4-(8-chloro-7-(2,3-dichlorophenyl)-4-(3-(dimethylamino)azetidin-1-yl)-6-fluoro-1H-[1,2,3]triazolo[4,5-c]quinolin-1-yl)piperidin-2-yl)acetonitrile] | ≤ 100 | ≤ 100 |
| C=CC(=O)N1CC[C@H](n2nnc3c(N4CC(N(C)C)C4)nc4c(F)c(-c5cccc(C)c5)c(Cl)cc4c32)C[C@H]1CC#N [Example 114, 2-((2S,4S)-1-acryloyl-4-(8-chloro-4-(3-(dimethylamino)azetidin-1-yl)-6-fluoro-7-(m-tolyl)-1H-[1,2,3]triazolo[4,5-c]quinolin-1-yl)piperidin-2-yl)acetonitrile] | ≤ 100 | ≤ 100 |
| C=CC(=O)N1CC[C@H](n2nnc3c(N4CC(N(C)C)C4)nc4c(F)c(-c5cccc(C#N)c5C)c(Cl)cc4c32)C[C@H]1CC#N [Example 115, 3-(1-((2S,4S)-1-acryloyl-2-(cyanomethyl)piperidin-4-yl)-8-chloro-4-(3-(dimethylamino)azetidin-1-yl)-6-fluoro-1H-[1,2,3]triazolo[4,5-c]quinolin-7-yl)-2-methylbenzonitrile] | ≤ 100 | ≤ 100 |
| C=CC(=O)N1CC[C@H](n2nnc3c(N4CC(N(C)C)C4)nc4c(F)c(-c5ccc(F)c(C)c5C)c(Cl)cc4c32)C[C@H]1CC#N [Example 116, 2-((2S,4S)-1-acryloyl-4-(8-chloro-4-(3-(dimethylamino)azetidin-1-yl)-6-fluoro-7-(4-fluoro-2,3-dimethylphenyl)-1H-[1,2,3]triazolo[4,5-c]quinolin-1-yl)piperidin-2-yl)acetonitrile] | ≤ 100 | ≤ 100 |
| C=CC(=O)N1CC[C@H](n2nnc3c(N4CC(N(C)C)C4)nc4c(F)c(-c5ccccc5C5CC5)c(Cl)cc4c32)C[C@H]1CC#N [Example 117, 2-((2S,4S)-1-acryloyl-4-(8-chloro-7-(2-cyclopropylphenyl)-4-(3-(dimethylamino)azetidin-1-yl)-6-fluoro-1H-[1,2,3]triazolo[4,5-c]quinolin-1-yl)piperidin-2-yl)acetonitrile] | ≤ 100 | ≤ 100 |
